Data set [1] concerns Rattus norvegicus. The experiment in a line: Antiinflammatory activity in albino rat assessed as inhibition of carrageenan-induced paw edema at 100 mg/kg, po treated for 30 mins measured after 2 hrs of carrageenan challenge. The format is functional. A general note: The carrageenan paw model is a standard test of acute inflammation.
The nature of data set [2]: Induction of NO release per mol of compound in phosphate buffer at pH 7.4 at 100 uM after 6 hrs by Griess assay. The format is physicochemical. The conditions noted are these: pH 7.4, 6 h.
A short description of data set [3]: Induction of NO release per mol of compound in phosphate buffer at pH 7.4 at 100 uM after 4 hrs by Griess assay. The format is physicochemical. The conditions noted are these: pH 7.4, 4 h. (In general: Griess reagent forms a coloured azo dye with nitrite.)
A short description of data set [4]: Induction of NO release per mol of compound in phosphate buffer at pH 7.4 at 100 uM after 3 hrs by Griess assay. The format is physicochemical. The conditions noted are these: pH 7.4, 3 h.
Data set [5] relates to Rattus norvegicus. The experiment in a line: Reduction in 5-(2,6-Dichlorophenyl)-4,5-dihydro-3-(4-methoxyphenyl)-1H-pyrazole-induced ulcer in albino rat at 100 mg/kg, po after 5 hrs. The format is functional. The arrangement: scale not given: the % may be the effect or the level left.
For data set [6], the system named is Rattus norvegicus. Kind of data set: Antiinflammatory activity in albino rat assessed as inhibition of carrageenan-induced paw edema at 100 mg/kg, po treated for 30 mins measured after 1 hr of carrageenan challenge. Type of data set: functional.
The subject of data set [7] is Rattus norvegicus. The experiment in a line: Gastrotoxicity in albino rat assessed as ulcer index at 100 mg/kg, po after 5 hrs. Type of data set: toxicity, organism-based. Also on record: dose 100 mg/kg, route oral. The conditions noted are these: in vivo.
A short description of data set [8]: Induction of NO release per mol of compound in phosphate buffer at pH 7.4 at 100 uM after 1 hr by Griess assay. The format is physicochemical. The following applies: pH 7.4, 1 h.
Data set [9] can be described thus: Induction of NO release per mol of compound in phosphate buffer at pH 7.4 at 100 uM after 5 hrs by Griess assay. The format is physicochemical. The conditions noted are these: pH 7.4, 5 h.
In data set [10] the test system is Rattus norvegicus. Kind of data set: Antiinflammatory activity in albino rat assessed as inhibition of carrageenan-induced paw edema at 100 mg/kg, po treated for 30 mins measured after 3 hrs of carrageenan challenge. Type of data set: functional.
In data set [11] the test system is Rattus norvegicus. Kind of data set: Reduction in 1-(2-Bromoacetyl)-5-(2,6-dichlorophenyl)-4,5-dihydro-3-(4-methoxyphenyl)-1H-pyrazole-induced ulcer in albino rat at 100 mg/kg, po after 5 hrs. The format is functional. The arrangement: scale not given: the % may be the effect or the level left.
Data set [12] is described as follows: Induction of NO release in phosphate buffer at pH 1 at 100 uM by Griess assay. Type of data set: physicochemical. The conditions noted are these: pH 1, 100 µM.
Data set [13] is described as follows: Induction of NO release per mol of compound in phosphate buffer at pH 7.4 at 100 uM after 2 hrs by Griess assay. The format is physicochemical. The following applies: pH 7.4, 2 h.

The structures appear in SMILES notation.

What is called inhibition in vivo is the relative decrease from the control value, in per cent. For the molecule `COc1ccc(C2=NN(C(=O)CO[N+](=O)[O-])C(c3c(Cl)cccc3Cl)C2)cc1` (stereo not drawn), the inhibition in vivo at 100 mg/kg with Rattus norvegicus [1] came out at 42%; in the data set on Rattus norvegicus [6], 34%; in the data set on Rattus norvegicus [10], 52%. Further, the NO release in [2] came to 0.593 mol/mol; in data set [3], 0.451 mol/mol; in data set [4], 0.356 mol/mol; in [8], 0.195 mol/mol; in data set [9] it was 0.656 mol/mol; in [13], 0.295 mol/mol. For the same molecule, the Activity in the data set with Rattus norvegicus [5] is reported as 96%; in the data set with Rattus norvegicus [11], 93%; in [12] it was “Not Active”. The UI in the data set with Rattus norvegicus [7] is recorded as 0.

The record behind these values is ChEMBL document CHEMBL1152474, “Synthesis and investigation of anti-inflammatory activity and gastric ulcerogenicity of novel nitric oxide-donating pyrazoline derivatives” (Eur J Med Chem, 2009).
